For orientation: IC50 means the concentration that gives 50% inhibition.

Each structure is given as a SMILES string. Where a name gives a salt, the structure may show the parent alone.

The target in one assay is T1, human C3a receptor (C3aR) (Homo sapiens, UniProt Q16581).
T1 construct: expressed in transfected cells
T1 sequence (Q16581 1-482): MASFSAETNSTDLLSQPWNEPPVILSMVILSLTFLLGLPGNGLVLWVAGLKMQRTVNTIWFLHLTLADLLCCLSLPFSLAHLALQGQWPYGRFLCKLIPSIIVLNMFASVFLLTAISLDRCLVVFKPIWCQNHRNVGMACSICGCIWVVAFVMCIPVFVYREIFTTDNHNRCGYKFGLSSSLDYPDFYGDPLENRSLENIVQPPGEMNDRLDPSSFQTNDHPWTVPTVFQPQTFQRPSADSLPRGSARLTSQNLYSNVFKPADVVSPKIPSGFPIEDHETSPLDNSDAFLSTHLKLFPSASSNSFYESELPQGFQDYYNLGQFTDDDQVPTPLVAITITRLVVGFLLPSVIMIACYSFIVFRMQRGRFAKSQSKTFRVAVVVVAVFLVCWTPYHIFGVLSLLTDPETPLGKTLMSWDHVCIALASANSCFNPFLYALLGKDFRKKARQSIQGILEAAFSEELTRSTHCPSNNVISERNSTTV
The experiment in a line: Inhibition of human [125I]-C3a binding to human C3a receptor (SPA, membranes of HEK293 cells expressing recombinant C3aR). The settings on record: 0.1 nM [125I]-C3a, 3 hours at room temperature; Table 4. In short, it runs like this: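 HEK293 C3aR membranes were pre-coupled to WGA SPA beads and incubated 3 h at room temperature with 0.1 nM [125I]-C3a in HEPES pH 7.4 buffer containing 0.25% BSA and 0.2% CHAPS, DMSO ≤1%. Nonspecific binding was defined with 1 μM unlabeled C3a. IC50 came from nonlinear least-squares fitting.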
On to `Cc1ccc(S(=O)(=O)NC(=N)NCCC[C@H](NC(=O)c2cccn(C(c3ccccc3)c3ccccc3)c2=O)C(=O)O)cc1` [Compound 77, (2S)-2-({[1-(diphenylmethyl)-2-oxo-1,2-dihydropyridin-3-yl]carbonyl}amino)-5-{[(4-methylphenyl)sulfonyl]carbamimidamido}pentanoic acid], for which the IC50 is 50 to 500 nM. For `Cc1c(C)c(S(=O)(=O)NC(=N)Nc2cccc([C@H](NC(=O)c3cccn(Cc4ccccc4)c3=O)C(=O)O)c2)c(C)c2c1OC(C)(C)CC2` [Compound 78, (2S)-{[(1-benzyl-2-oxo-1,2-dihydropyridin-3-yl)carbonyl]amino}(3-{[(2,2,5,7,8-pentamethyl-3,4-dihydro-2H-chromen-6-yl)sulfonyl]carbamimidamido}phenyl)acetic acid], the 50% inhibitory concentration (IC50) lay in the range of 500 to 20000 nM. For `Cc1c(C)c(S(=O)(=O)NC(=N)NCCC[C@H](NC(=O)c2cccn(CC(c3ccccc3)c3ccccc3)c2=O)C(=O)O)c(C)c2c1OC(C)(C)CC2` [Compound 79, (2S)-2-({[1-(2,2-diphenylethyl)-2-oxo-1,2-dihydropyridin-3-yl]carbonyl}amino)-5-{[(2,2,5,7,8-pentamethyl-3,4-dihydro-2H-chromen-6-yl)sulfonyl]carbamimidamido}pentanoic acid•TFA], the 50% inhibitory concentration (IC50) was 50 to 500 nM. For the molecule `COC(=O)[C@H](CCCNC(=N)N)NC(=O)c1cccn(C(c2ccccc2)c2ccccc2)c1=O` [Compound 80, methyl (2S)-5-carbamimidamido-2-({[1-(diphenylmethyl)-2-oxo-1,2-dihydropyridin-3-yl]carbonyl}amino)pentanoate], the half-maximal inhibitory concentration (IC50) is < 50 nM. Same read-out and setting: next, `N=C(N)NCCC[C@H](NC(=O)c1cccn(C(c2ccccc2)c2ccccc2)c1=O)C(N)=O` [Compound 81, N-[(1S)-4-carbamimidamido-1-carbamoylbutyl]-1-(diphenylmethyl)-2-oxo-1,2-dihydropyridine-3-carboxamide-TFA]: 500 to 20000 nM; `CCOC(=O)N=C(NCCC[C@H](NC(=O)c1cccn(C(c2ccccc2)c2ccccc2)c1=O)C(=O)O)NC(C)C` [Compound 82, (2S)-2-({[1-(diphenylmethyl)-2-oxo-1,2-dihydropyridin-3-yl]carbonyl}amino)-5-{[{(ethoxycarbonyl)amino}(isopropylamino)methylene]amino}pentanoic acid]: 50 to 500 nM.

Regarding `CCOC(=O)N=C(N)NCCC[C@H](NC(=O)c1cccn(C(c2ccccc2)c2ccccc2)c1=O)C(=O)O` [Compound 83, (2S)-2-({[1-(diphenylmethyl)-2-oxo-1,2-dihydropyridin-3-yl]carbonyl}amino)-5-[(ethoxycarbonyl)carbamimidamido]pentanoic acid], the concentration for half-maximal inhibition (IC50) fell in the range of 500 to 20000 nM.

Still in this assay, the particulars now being: 0.1 nM [125I]-C3a, 3 hours at room temperature; Table 5.
In the case of `Cc1cc(Cc2ccccc2)c(=O)n(CC(=O)N[C@@H](CCCNC(=N)N)C(=O)O)c1` [Compound 84, (2S)-2-{[(3-benzyl-5-methyl-2-oxopyridin-1(2H)-yl)acetyl]amino}-5-carbamimidamidopentanoic acid•TFA], the half-inhibitory concentration (IC50) lay in the range of 500 to 20000 nM.

With `O=C(N[C@@H](Cc1c[nH]cn1)C(=O)O)c1cccn(C(c2ccccc2)c2ccccc2)c1=O` [Compound 85, (2S)-2-({[1-(diphenylmethyl)-2-oxo-1,2-dihydropyridin-3-yl]carbonyl}amino)-3-(1H-imidazol-4-yl)propanoic acid•TFA], the IC50 lay in the range of 50 to 500 nM.

Still in this assay, the particulars now being: 0.1 nM [125I]-C3a, 3 hours at room temperature; Table 6.
Turning to `CC(=N)NCCC[C@H](NC(=O)c1cccn(C(c2ccccc2)c2ccccc2)c1=O)C(=O)O` [Compound 86, (2S)-2-({[1-(diphenylmethyl)-2-oxo-1,2-dihydropyridin-3-yl]carbonyl}amino)-5-(ethanimidoylamino)pentanoic acid•TFA], the IC50 was < 50 nM. Consider `N=C(N)NCCCC[C@H](NC(=O)c1cccn(C(c2ccccc2)c2ccccc2)c1=O)C(=O)O` [Compound 87, (2S)-6-Carbamimidamido-2-({[1-(diphenylmethyl)-2-oxo-1,2-dihydropyridin-3-yl]carbonyl}amino)hexanoic acid], for which the half-inhibitory concentration (IC50) is < 50 nM. For `CC(=N)NCCCC[C@H](NC(=O)c1cccn(C(c2ccccc2)c2ccccc2)c1=O)C(=O)O` [Compound 88, (2S)-2-({[1-(diphenylmethyl)-2-oxo-1,2-dihydropyridin-3-yl]carbonyl}amino)-6-(ethanimidoylamino)hexanoic acid•TFA], the half-inhibitory concentration (IC50) was 50 to 500 nM.

For `N=C(N)NCCC[C@@H](CC(=O)O)NC(=O)c1cccn(C(c2ccccc2)c2ccccc2)c1=O` [Compound 89, (3S)-6-Carbamimidamido-3-({[1-(diphenylmethyl)-2-oxo-1,2-dihydropyridin-3-yl]carbonyl}amino)hexanoic acid], the half-maximal inhibitory concentration (IC50) was < 50 nM. For the molecule `CC(C)(C)Cn1cccc(C(=O)N[C@@H](CCCNC(=N)N)C(=O)O)c1=O` [Compound 90, (2S)-5-carbamimidamido-2-({[1-(2,2-dimethylpropyl)-2-oxo-1,2-dihydropyridin-3-yl]carbonyl}amino)pentanoic acid•TFA], the IC50 is < 50 nM. Take `CC(=O)NCCC[C@H](NC(=O)c1cccn(C(c2ccccc2)c2ccccc2)c1=O)C(=O)O` [Compound 91, (2S)-5-(Acetylamino)-2-({[1-(diphenylmethyl)-2-oxo-1,2-dihydropyridin-3-yl]carbonyl}amino)pentanoic acid]: the IC50 was 50 to 500 nM. On to `N/C(=N\O)NCCC[C@H](NC(=O)c1cccn(C(c2ccccc2)c2ccccc2)c1=O)C(=O)O` [Compound 92, (2S)-2-({[1-(Diphenylmethyl)-2-oxo-1,2-dihydropyridin-3-yl]carbonyl}amino)-5-(hydroxycarb-amimidamido)pentanoicacid], for which the IC50 was < 50 nM. Regarding `CC(C)/N=C(\NCCC[C@H](NC(=O)c1cccn(C(c2ccccc2)c2ccccc2)c1=O)C(=O)O)NC(C)C` [Compound 93, (2S)-5-({Bis[(1-methylethyl)amino]methylidene}amino)-2-({[1-(diphenylmethyl)-2-oxo-1,2-dihydropyridin-3-yl]carbonyl}amino)pentanoic acid], the half-maximal inhibitory concentration (IC50) lay in the range of 50 to 500 nM. For `CC(=N)NCC[C@H](NC(=O)c1cccn(C(c2ccccc2)c2ccccc2)c1=O)C(=O)O` [Compound 94, (2S)-2-({[1-(diphenylmethyl)-2-oxo-1,2-dihydropyridin-3-yl]carbonyl}amino)-4-(ethanimidoylamino)butanoic acid•TFA], the IC50 was 50 to 500 nM. With `CCN(CC)CCC[C@H](NC(=O)c1cccn(C(c2ccccc2)c2ccccc2)c1=O)C(=O)O` [Compound 95, (2S)-5-(Diethylamino)-2-({[1-(diphenylmethyl)-2-oxo-1,2-dihydropyridin-3-yl]carbonyl}amino)pentanoic acid], the half-maximal inhibitory concentration (IC50) is < 50 nM. On the same count and under the same terms, for `N=C(CC(=O)O)NCCC[C@H](NC(=O)c1cccn(C(c2ccccc2)c2ccccc2)c1=O)C(=O)O` [Compound 96, (2S)-5-[(2-carboxyethanimidoyl)amino]-2-({[1-(diphenylmethyl)-2-oxo-1,2-dihydropyridin-3-yl]carbonyl}amino)pentanoic acid•TFA] the value was < 50 nM; for `N=C(N)NCCC[C@H](NC(=O)c1ccc(C(c2ccccc2)c2ccccc2)s1)C(=O)O` [Compound 97, (2S)-5-Carbamimidamido-2-({[5-(diphenylmethyl)thiophen-2-yl]carbonyl}amino)pentanoic acid], < 50 nM. On to `N=C(N)NCCC[C@H](NC(=O)c1ccc(C(O)(c2ccccc2)c2ccccc2)s1)C(=O)O` [Compound 98, (2S)-5-Carbamimidamido-2-[({5-[hydroxy(diphenyl)methyl]thiophen-2-yl}carbonyl)amino]pentanoic acid], for which the IC50 is < 50 nM. `N=C(N)NC(=O)CC[C@H](NC(=O)c1ccc(C(c2ccccc2)c2ccccc2)s1)C(=O)O` [Compound 99, (2S)-5-Carbamimidamido-2-({[5-(diphenylmethyl)thiophen-2-yl]carbonyl}amino)-5-oxopentanoicacid]: the IC50 was < 50 nM. For `CC(=N)NCCC[C@H](NC(=O)c1cccn(Cc2ccccc2)c1=O)C(=O)O` [Compound 100, (2S)-2-{[(1-benzyl-2-oxo-1,2-dihydropyridin-3-yl)carbonyl]amino}-5-(ethanimidoylamino)pentanoic acid•TFA], the half-maximal inhibitory concentration (IC50) was in the range of 500 to 20000 nM. Still for that read-out and setting: for `CC(=N)NCCC[C@H](NC(=O)c1cccn(Cc2cccc(Cl)c2)c1=O)C(=O)O` [Compound 101, (2S)-2-({[1-(3-chlorobenzyl)-2-oxo-1,2-dihydropyridin-3-yl]carbonyl}amino)-5-(ethanimidoylamino)pentanoic acid•TFA] the value was 50 to 500 nM; for `CC(=N)NCCC[C@H](NC(=O)c1ccc(C(c2ccccc2)c2ccccc2)o1)C(=O)O` [Compound 102, (2S)-2-({[5-(Diphenylmethyl)furan-2-yl]carbonyl}amino)-5-(ethanimidoylamino)pentanoic acid], 50 to 500 nM; for `CC(=N)NCCC[C@H](NC(=O)c1ccc(C(c2ccccc2)c2ccccc2)s1)C(=O)O` [Compound 103, (2S)-2-({[5-(diphenylmethyl)thiophen-2-yl]carbonyl}amino)-5-(ethanimidoylamino)pentanoic acid•TFA], 50 to 500 nM.
